The source made the active and inactive calls. No rule for the calls is given here.
Test system: CCRIS mutagenicity, Ames/micronucleus/aberration tests
Test: CCRIS mutagenicity studies

## COC(=O)Nc1nc2ccccc2[nH]1
End Point: IN VITRO CHROMOSOMAL ABERRATIONS, Test System: HUMAN PERIPHERAL LYMPHOCYTES, Metabolic Activation: RAT, LIVER, S-9, AROCLOR 1254
  mutagenic call: inactive; negative
End Point: IN VITRO MICRONUCLEUS, Test System: HUMAN PERIPHERAL LYMPHOCYTES, Metabolic Activation: NONE
  mutagenic call: active; positive
End Point: IN VITRO MICRONUCLEUS, Test System: V79 CELLS, Metabolic Activation: NONE
  mutagenic call: active; positive
End Point: In vitro micronucleus, Test System: Mouse lymphoma L5178Y cells, Metabolic Activation: None
  mutagenic call: active; positive
End Point: In vivo micronucleus, Test System: Micronucleated, binucleated and multinucleated hepatocytes, Species: Mouse, Strain/Sex: ddY/Male, Route: Oral
  mutagenic call: active; positive for micronucleated, binucleated and multinucleated cells when agent adm
Test System: AMES SALMONELLA TYPHIMURIUM, Strain/Indicator: TA97, Metabolic Activation: NONE, Method: PREINCUBATION
  mutagenic call: inactive; negative
Test System: AMES SALMONELLA TYPHIMURIUM, Strain/Indicator: TA97, Metabolic Activation: NONE, Method: STANDARD PLATE
  mutagenic call: inactive; negative
Test System: AMES SALMONELLA TYPHIMURIUM, Strain/Indicator: TA97, Metabolic Activation: RAT, LIVER, S-9, PHENOBARBITAL AND BETA-NAPHTHOFLAVONE, Method: PREINCUBATION
  mutagenic call: active; positive
Test System: AMES SALMONELLA TYPHIMURIUM, Strain/Indicator: TA97, Metabolic Activation: RAT, LIVER, S-9, PHENOBARBITAL AND BETA-NAPHTHOFLAVONE, Method: STANDARD PLATE
  mutagenic call: inactive; negative
Test System: AMES SALMONELLA TYPHIMURIUM, Strain/Indicator: TA97A, Metabolic Activation: NONE, Method: STANDARD PLATE
  mutagenic call: inactive; negative
Test System: AMES SALMONELLA TYPHIMURIUM, Strain/Indicator: TA97A, Metabolic Activation: PLANT, HOMOGENATE, S-14, Method: STANDARD PLATE
  mutagenic call: inactive; negative
Test System: AMES SALMONELLA TYPHIMURIUM, Strain/Indicator: TA97A, Metabolic Activation: S-9, Method: STANDARD PLATE
  mutagenic call: inactive; negative
Test System: AMES SALMONELLA TYPHIMURIUM, Strain/Indicator: TA98, Metabolic Activation: HAMSTER, LIVER, S-9, AROCLOR 1254 (10%), Method: PREINCUBATION
  mutagenic call: active; positive
Test System: AMES SALMONELLA TYPHIMURIUM, Strain/Indicator: TA98, Metabolic Activation: NONE, Method: PREINCUBATION
  mutagenic call: inactive; negative
Test System: AMES SALMONELLA TYPHIMURIUM, Strain/Indicator: TA98, Metabolic Activation: PLANT, HOMOGENATE, S-14, Method: STANDARD PLATE
  mutagenic call: inactive; negative
Test System: AMES SALMONELLA TYPHIMURIUM, Strain/Indicator: TA98, Metabolic Activation: RAT, LIVER, S-9, AROCLOR 1254 (10%), Method: PREINCUBATION
  mutagenic call: active; positive
Test System: AMES SALMONELLA TYPHIMURIUM, Strain/Indicator: TA98, Metabolic Activation: RAT, LIVER, S-9, PHENOBARBITAL AND BETA-NAPHTHOFLAVONE, Method: PREINCUBATION
  mutagenic call: active; positive
Test System: AMES SALMONELLA TYPHIMURIUM, Strain/Indicator: TA98, Metabolic Activation: RAT, LIVER, S-9, PHENOBARBITAL AND BETA-NAPHTHOFLAVONE, Method: STANDARD PLATE
  mutagenic call: active; positive
Test System: AMES SALMONELLA TYPHIMURIUM, Strain/Indicator: TA98, Metabolic Activation: RAT, LIVER, S-9, PHENOBARBITONE, Method: PREINCUBATION
  mutagenic call: inactive; negative
Test System: AMES SALMONELLA TYPHIMURIUM, Strain/Indicator: TA98, Metabolic Activation: S-9, Method: STANDARD PLATE
  mutagenic call: inactive; negative
Test System: AMES SALMONELLA TYPHIMURIUM, Strain/Indicator: TA100, Metabolic Activation: HAMSTER, LIVER, S-9, AROCLOR 1254 (10%), Method: PREINCUBATION
  mutagenic call: inactive; negative
Test System: AMES SALMONELLA TYPHIMURIUM, Strain/Indicator: TA100, Metabolic Activation: NONE, Method: PREINCUBATION
  mutagenic call: inactive; negative
Test System: AMES SALMONELLA TYPHIMURIUM, Strain/Indicator: TA100, Metabolic Activation: PLANT, HOMOGENATE, S-14, Method: STANDARD PLATE
  mutagenic call: inactive; negative
Test System: AMES SALMONELLA TYPHIMURIUM, Strain/Indicator: TA100, Metabolic Activation: RAT, LIVER, S-9, AROCLOR 1254 (10%), Method: PREINCUBATION
  mutagenic call: inactive; negative
Test System: AMES SALMONELLA TYPHIMURIUM, Strain/Indicator: TA100, Metabolic Activation: RAT, LIVER, S-9, AROCLOR 1254, Method: STANDARD PLATE
  mutagenic call: inactive; negative
Test System: AMES SALMONELLA TYPHIMURIUM, Strain/Indicator: TA100, Metabolic Activation: RAT, LIVER, S-9, PHENOBARBITAL AND BETA-NAPHTHOFLAVONE, Method: PREINCUBATION
  mutagenic call: inactive; negative
Test System: AMES SALMONELLA TYPHIMURIUM, Strain/Indicator: TA100, Metabolic Activation: RAT, LIVER, S-9, PHENOBARBITAL AND BETA-NAPHTHOFLAVONE, Method: STANDARD PLATE
  mutagenic call: inactive; negative
Test System: AMES SALMONELLA TYPHIMURIUM, Strain/Indicator: TA100, Metabolic Activation: RAT, LIVER, S-9, PHENOBARBITONE, Method: PREINCUBATION
  mutagenic call: inactive; negative
Test System: AMES SALMONELLA TYPHIMURIUM, Strain/Indicator: TA100, Metabolic Activation: S-9, Method: STANDARD PLATE
  mutagenic call: inactive; negative
Test System: AMES SALMONELLA TYPHIMURIUM, Strain/Indicator: TA102, Metabolic Activation: NONE, Method: PREINCUBATION
  mutagenic call: inactive; negative
Test System: AMES SALMONELLA TYPHIMURIUM, Strain/Indicator: TA102, Metabolic Activation: NONE, Method: STANDARD PLATE
  mutagenic call: inactive; negative
Test System: AMES SALMONELLA TYPHIMURIUM, Strain/Indicator: TA102, Metabolic Activation: RAT, LIVER, S-9, PHENOBARBITAL AND BETA-NAPHTHOFLAVONE, Method: PREINCUBATION
  mutagenic call: inactive; negative
Test System: AMES SALMONELLA TYPHIMURIUM, Strain/Indicator: TA102, Metabolic Activation: RAT, LIVER, S-9, PHENOBARBITAL AND BETA-NAPHTHOFLAVONE, Method: STANDARD PLATE
  mutagenic call: inactive; negative
Test System: AMES SALMONELLA TYPHIMURIUM, Strain/Indicator: TA1535, Metabolic Activation: HAMSTER, LIVER, S-9, AROCLOR 1254 (10%), Method: PREINCUBATION
  mutagenic call: inactive; negative
Test System: AMES SALMONELLA TYPHIMURIUM, Strain/Indicator: TA1535, Metabolic Activation: NONE, Method: PREINCUBATION
  mutagenic call: inactive; negative
Test System: AMES SALMONELLA TYPHIMURIUM, Strain/Indicator: TA1535, Metabolic Activation: PLANT, HOMOGENATE, S-14, Method: STANDARD PLATE
  mutagenic call: inactive; negative
Test System: AMES SALMONELLA TYPHIMURIUM, Strain/Indicator: TA1535, Metabolic Activation: RAT, LIVER, S-9, AROCLOR 1254 (10%), Method: PREINCUBATION
  mutagenic call: inactive; negative
Test System: AMES SALMONELLA TYPHIMURIUM, Strain/Indicator: TA1535, Metabolic Activation: RAT, LIVER, S-9, AROCLOR 1254, Method: STANDARD PLATE
  mutagenic call: inactive; negative
Test System: AMES SALMONELLA TYPHIMURIUM, Strain/Indicator: TA1535, Metabolic Activation: RAT, LIVER, S-9, PHENOBARBITAL AND BETA-NAPHTHOFLAVONE, Method: PREINCUBATION
  mutagenic call: inactive; negative
Test System: AMES SALMONELLA TYPHIMURIUM, Strain/Indicator: TA1535, Metabolic Activation: RAT, LIVER, S-9, PHENOBARBITAL AND BETA-NAPHTHOFLAVONE, Method: STANDARD PLATE
  mutagenic call: inactive; negative
Test System: AMES SALMONELLA TYPHIMURIUM, Strain/Indicator: TA1535, Metabolic Activation: S-9, Method: STANDARD PLATE
  mutagenic call: inactive; negative
Test System: AMES SALMONELLA TYPHIMURIUM, Strain/Indicator: TA1537, Metabolic Activation: HAMSTER, LIVER, S-9, AROCLOR 1254 (10%), Method: PREINCUBATION
  mutagenic call: active; positive
Test System: AMES SALMONELLA TYPHIMURIUM, Strain/Indicator: TA1537, Metabolic Activation: NONE, Method: PREINCUBATION
  mutagenic call: inactive; negative
Test System: AMES SALMONELLA TYPHIMURIUM, Strain/Indicator: TA1537, Metabolic Activation: RAT, LIVER, S-9, AROCLOR 1254 (10%), Method: PREINCUBATION
  mutagenic call: active; positive
Test System: AMES SALMONELLA TYPHIMURIUM, Strain/Indicator: TA1537, Metabolic Activation: RAT, LIVER, S-9, AROCLOR 1254, Method: STANDARD PLATE
  mutagenic call: inactive; negative
Test System: AMES SALMONELLA TYPHIMURIUM, Strain/Indicator: TA1537, Metabolic Activation: RAT, LIVER, S-9, PHENOBARBITAL AND BETA-NAPHTHOFLAVONE, Method: PREINCUBATION
  mutagenic call: active; positive
Test System: AMES SALMONELLA TYPHIMURIUM, Strain/Indicator: TA1537, Metabolic Activation: RAT, LIVER, S-9, PHENOBARBITAL AND BETA-NAPHTHOFLAVONE, Method: STANDARD PLATE
  mutagenic call: inactive; negative
Test System: AMES SALMONELLA TYPHIMURIUM, Strain/Indicator: TA1538, Metabolic Activation: NONE, Method: PREINCUBATION
  mutagenic call: inactive; negative
Test System: AMES SALMONELLA TYPHIMURIUM, Strain/Indicator: TA1538, Metabolic Activation: NONE, Method: STANDARD PLATE
  mutagenic call: inactive; negative
Test System: AMES SALMONELLA TYPHIMURIUM, Strain/Indicator: TA1538, Metabolic Activation: RAT, LIVER, S-9, AROCLOR 1254, Method: STANDARD PLATE
  mutagenic call: inactive; negative
Test System: AMES SALMONELLA TYPHIMURIUM, Strain/Indicator: TA1538, Metabolic Activation: RAT, LIVER, S-9, PHENOBARBITAL AND BETA-NAPHTHOFLAVONE, Method: PREINCUBATION
  mutagenic call: active; positive
Test System: AMES SALMONELLA TYPHIMURIUM, Strain/Indicator: TA1538, Metabolic Activation: RAT, LIVER, S-9, PHENOBARBITAL AND BETA-NAPHTHOFLAVONE, Method: STANDARD PLATE
  mutagenic call: active; positive
Test System: Mouse lymphoma, Strain/Indicator: L5178Y (tk+/tk-)/Trifluorothymidine, Metabolic Activation: None, Method: Microtiter
  mutagenic call: active; positive

From PubChem BioAssay AID1259407 (Chemical Carcinogenesis Research Information System (CCRIS), 2018)
